Converted amounts (≈) assume the structure as drawn. “Also recorded” adds a separate entry of the source. Like-named read-outs stand apart in the source and are kept apart here.
How the values were obtained:
[1] = tested on: B. subtilis (PY79 WT) peptidoglycan synthesis; assay: HADA (FDAA) incorporation microscopy assay, peptidoglycan synthesis; assay type: cell-based, Bacillus subtilis; conditions: for inhibition of peptidoglycan synthesis (FDAA incorporation): B. subtilis, FIGS. 7B and 7C
Procedure: HADA was synthesized according to the reported protocols. Exponentially growing B. subtilis (PY79 WT) cells for the experiments were prepared as described above. […] After a 5-minute incubation at 37° C., HADA stock solution (100 mM) was directly added to the cultures to a final concentration of 0.5 mM. The cultures were then incubated in a 37° C. shaker for 30 minutes. Cell fixation was then carried out by directly adding 0.7 ml 100% ethanol to the cultures, following 1-hour incubation on ice-bath. The fixed cells were collected using centrifuge (9000 g, 3 minutes), washed with 1×PBS twice, and then resuspended into 1×PBS. The cells were imaged using Nikon Ti-E microscope. HADA signal was detected using DAPI filter set (Excitation 395/25 nm; emission 435/26 nm). HADA intensity was analyzed using ImageJ and MicrobeJ plug-in.

[2] = tested on: FtsZ/FtsA/PBP2B localization in B. subtilis; assay: Imaging of fluorescently labeled FtsZ, FtsA and PBP2B (mNeonGreen); assay type: cell-based, Bacillus subtilis; conditions: for localization of FtsZ: B. Subtilis, concentration not given; for localization of FtsZ, FtsA and PBP2B: B. subtilis, FIG. 7D; for localization of fluorescently labeled FtsZ (mNeonG): 10 μM (5×MIC), high-resolution microscopy
Procedure: B. subtilis strains with fluorescent protein fusion were made (FtsZ-mNeonGreen: bAB185, FtsA-mNeonGreen: bAB167, PBP2B-mNeonGreen: bAB109). Exponentially growing cells for the experiments were prepared as described above. Antibiotic stock solutions were added to 0.3 ml exponentially growing cell cultures to a final concentration of 5×MIC. The cells were incubated at 37° C. for 5 minutes and then immediately imaged using the Ti-E microscope without fixation. mNeonGreen signal was detected using FITC filter set (Excitation 470/24 nm; emission 510/40 nm). Image processing was performed in ImageJ. Images were scaled without interpolation, cropped and rotated. Linear adjustment was performed to optimize contrast and brightness of the images. All the images from the same experiment were processed in the same way in order to ensure fair comparison.

[3] = tested on: Bacillus subtilis (PY79 WT); assay: Cell lengthening assay; assay type: cell-based; conditions: for cell lengthening: B. Subtilis; for cell lengthening phenotype: B. subtilis, FIG. 7A, concentration not given
Procedure: Bacillus subtilis (PY79 WT, lab stock) were inoculated from an overnight plate culture (single colony) to 3 ml LB in 15 ml culture tubes. The cultures were incubated in a 37° C. shaker until OD600 reached 0.2. The cultures were then diluted with fresh LB to OD600 0.05, followed by another round of incubation to OD600 0.2. At this point, cells have reached exponentially growing states and were used for experiments. […] The cultures were incubated at a 37° C. shaker for 40 minutes, followed by direct addition of 0.7 ml 100% ethanol (70% final ethanol concentration) and then incubation on ice-bath for 1 hour. The fixed cells were imaged using a Nikon Ti-E inverted microscope equipped with a 1.4NA Plan Apo 60X oil objective and Andor iXon EMCCD camera. Cell images were captured under phase-to-contrast channel. Cell length was analyzed using ImageJ and MicrobeJ plug-in.

B. Subtilis [4] = assay: Time-lapse microscopy of FtsZ motion; assay type: cell-based, Bacillus subtilis; conditions: 5×MIC
Procedure: Time-lapse microscopy was employed to monitor the dynamics of FtsZ motion before and after treatment by these compounds. FtsZ movement drives the septal peptidoglycan synthesis machinery in B. subtilis. The movement is carried out by a “treadmilling process” where FtsZ monomer polymerizes at one end and disassembles at the other. FtsZ polymerization is triggered by binding to GTP while its disassembly is catalyzed by GTP hydrolysis to GDP.

S. aureus ATCC 25293 [5] = assay: Agar diffusion assay; assay type: cell-based, Staphylococcus aureus
Procedure: (§1) VU0848355 and VU0848354 were evaluated for growth inhibition against S. aureus and inhibition of GTPase activity against S. aureus FtsZ using a biochemical assay (FIGS. 6A-6C).

Gram-positive pathogens = assay: Comparison of bacterial growth inhibition across panel; assay type: cell-based; conditions: for potency in inhibiting bacterial growth relative to natural C-ring isomers VU0849855 and VU0848355: FIGS. 5A-5C
Procedure: (§2) MICs for all compounds were determined using the CLSI guidelines on the test strains. Solutions of each compound were prepared by dissolution in DMSO (Sigma Aldrich, St. Louis MO) at a concentration of 10-20 mg mL^−1. […] Stock solutions were added to Mueller-Hinton II broth and serial two-fold dilutions were prepared in a 96-well microtiter plate (50 μL per well). Fifty microliters (50 μL) of inoculum containing 1×10^6 CFU mL^−1 for E. coli, S. aureus, or MRSA, or 2×10^6 CFU mL^−1 for E. faecalis or VRE were added to the wells. Plates were covered with a sterile membrane, placed in a plate reader, and agitated for 2 min to mix the contents of the wells. Plates were incubated at 37° C. for 16 h. Wells containing 4% DMSO or gentamycin served as negative and positive controls. […] Each assay was performed in triplicate and two independent experiments were carried out on separate days.
The bacterial growth inhibition of synthetic 9-dechlorochrysophaentins compared favorably to chrysophaentin A when evaluated across a panel of Gram-positive pathogens (Table 1).

S. aureus ATCC 25293 [6] = assay: Microbroth dilution growth inhibition; assay type: cell-based; conditions: Staphylococcus aureus, ATCC25293; S. aureus ATCC 25293, microbroth dilution
Procedure: as §1

S. aureus FtsZ = target: T1, S. aureus FtsZ (Staphylococcus aureus, UniProt P0A031); assay: Biochemical GTPase-FtsZ inhibition assay
T1 sequence (P0A031 1-390): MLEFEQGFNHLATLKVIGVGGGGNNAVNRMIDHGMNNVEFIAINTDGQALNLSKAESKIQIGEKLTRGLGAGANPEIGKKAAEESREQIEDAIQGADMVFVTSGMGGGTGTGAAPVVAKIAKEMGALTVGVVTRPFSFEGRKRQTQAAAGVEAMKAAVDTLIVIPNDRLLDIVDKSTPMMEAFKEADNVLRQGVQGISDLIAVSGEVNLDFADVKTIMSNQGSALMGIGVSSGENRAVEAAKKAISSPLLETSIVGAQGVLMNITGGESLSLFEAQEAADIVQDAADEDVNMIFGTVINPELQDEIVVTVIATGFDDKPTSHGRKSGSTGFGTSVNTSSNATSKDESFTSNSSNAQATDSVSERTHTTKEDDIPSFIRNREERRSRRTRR
Procedure: as §1

B. Subtilis [7] = assay: Minimum inhibitory concentration; assay type: cell-based; conditions: Bacillus subtilis; read-out: MIC50 B. Subtifis
[8] = tested on: Enterococcus faecalis (ATCC 29212); assay: Minimum inhibitory concentration, broth microdilution (CLSI); assay type: cell-based; conditions: for MIC50: Enterococcus faecalis, ATCC29212, read-out: MIC50 E. Faecalis
From the text: (§3) Chemicals-FtsZ inhibitor PC190723 and ampicllin were purchased from Millipore Sigma Aldrich (St. Louis, MO). Chrysophaentin A was obtained from a 2017 collection of the marine alga C. taylorii collected in the U.S. Virgin Islands (Permit VIIS-2017-SCI-0034) and isolated as described previously. All bacterial strains used for drug susceptibility testing were obtained from the American Type Culture Collection (Manassas, VA) and included Escherichia coli (ATCC 25922), Enterococcus faecalis (ATCC 29212), vancomycin-resistant E. faecalis (VRE, ATCC 51299), Staphylococcus aureus (ATCC 25913), and methicillin-resistant S. aureus (MRSA, ATCC 43300). Strains were maintained on agar slants at 4° C. and sub-cultured on fresh agar plates containing ATCC-recommended media. Strains were cultured in liquid media 16 h prior to any antimicrobial screen. BD BBL™ Mueller-Hinton II broth (Fisher Scientific, Hampton NH) was used for MIC determinations.
as §2

[9] = tested on: VRE, vancomycin-resistant E. faecalis (ATCC 51299); assay: as above; assay type: cell-based, Enterococcus faecalis; conditions: for MIC50: Enterococcus
From the text: as §3, §2

S. aureus (ATCC 25913) = assay: as above; assay type: cell-based, Staphylococcus aureus; conditions: for MIC50: Staphylococcus aureus, ATCC25913
From the text: as §3, §2

[10] = tested on: MRSA, methicillin-resistant S. aureus (ATCC 43300); assay: as above; assay type: cell-based, Staphylococcus aureus; conditions: for MIC50: Staphylococcus aureus
From the text: as §3, §2

[11] = tested on: gram-positive bacteria, such as MRSA; conditions: against gram-positive bacteria; cited from earlier work

CC1(C)S[C@@H]2[C@H](NC(=O)[C@H](N)c3ccccc3)C(=O)N2[C@H]1C(=O)O [Ampicillin, ampicillin, reference compound]
inhibition of peptidoglycan synthesis (FDAA incorporation) [1]: inhibit peptidoglycan synthesis

NC(=O)c1c(F)ccc(OCc2nc3cc(Cl)cnc3s2)c1F [PC190723, reference compound]
inhibition of peptidoglycan synthesis (FDAA incorporation) [1]: does not
inhibition of FDAA incorporation ([1]; up to 10×MIC): minimal inhibition of FDAAs incorporation
localization of FtsZ [2]: dislocation but retention of FtsZ
cell lengthening ([3]; 5 μg/mL (10×MIC)): Cell lengthening was observed
cell lengthening phenotype [3]: produces the expected cell lengthening phenotype
cell lengthening phenotype ([3]; listed as PC1907723): leads to expected cell lengthening

COc1cc2cc(OC)c1Oc1cc(c(O)cc1Cl)C/C=C\Cc1cc(O)cc(O)c1Oc1ccc(O)c(c1Cl)C/C=C(/Cl)C2 [VU0848354]
cell elongation (B. Subtilis [4]): did not elongate
inhibition of peptidoglycan synthesis (FDAA incorporation) [1]: inhibit peptidoglycan synthesis; also recorded: inhibited both lateral and septal peptidoglycan synthesis
localization of FtsZ, FtsA and PBP2B [2]: displace FtsZ/A and penicillin binding protein PBP2B; also recorded: unique dispersion of FtsZ, FtsA and PBP2B
growth inhibition, agar diffusion (S. aureus ATCC 25293 [5]): inhibited growth of S. aureus
potency in inhibiting bacterial growth relative to natural C-ring isomers VU0849855 and VU0848355 (Gram-positive pathogens): approximately two-fold
IC50 (S. aureus ATCC 25293 [6]): < 1 µM
cell lengthening phenotype [3]: neither VU0848355 and VU0848354 replicates the cell lengthening phenotype
IC50 (S. aureus FtsZ; S. aureus FtsZ biochemical assay, read-out: IC50 GTPase-FtsZ inhibition): > 250 µM

COc1cc2cc(OC)c1Oc1cc(c(O)cc1Cl)C/C=C\Cc1cc(O)cc(O)c1Oc1cc(c(O)cc1Cl)C/C=C(/Cl)C2 [VU0848355]
inhibition of peptidoglycan synthesis (FDAA incorporation) [1]: inhibit peptidoglycan synthesis; also recorded: inhibited both lateral and septal peptidoglycan synthesis
localization of FtsZ, FtsA and PBP2B [2]: displace FtsZ/A and penicillin binding protein PBP2B; also recorded: unique dispersion of FtsZ, FtsA and PBP2B
growth inhibition, agar diffusion (S. aureus ATCC 25293 [5]): inhibited growth of S. aureus
IC50 (S. aureus ATCC 25293 [6]): < 1 µM
cell lengthening phenotype [3]: neither VU0848355 and VU0848354 replicates the cell lengthening phenotype
IC50 (S. aureus FtsZ): > 250 µM

Oc1cc(O)c2c(c1)C/C=C\Cc1cc(c(Cl)cc1O)Oc1c(O)cc(cc1O)C/C(Cl)=C\Cc1c(O)ccc(c1Cl)O2 [VU0849838, iso-9-dechlorochrysophaentin A]
MIC50 (B. Subtilis [7]): 2 µg/mL (≈ 3.11 µM)
inhibition of FDAA incorporation ([1]; 10 μM (5×MIC)): inhibited incorporation of FDAAs
localization of fluorescently labeled FtsZ (mNeonG) [2]: complete disassociation of FtsZ
localization of FtsZ [2]: lead to dislocation of FtsZ
potency in inhibiting bacterial growth relative to natural C-ring isomers VU0849855 and VU0848355 (Gram-positive pathogens): approximately two-fold
growth inhibition (MIC) relative to natural chrysophaentin A (Gram-positive pathogens; S. aureus, MRSA and E. faecalis): approximately two-fold
MIC50 [8]: 0.3 µg/mL (≈ 0.466 µM)
cell lengthening ([3]; up to 20 μM (10×MIC)): did not affect cell lengthening
MIC50 [9]: 2.2 µg/mL (≈ 3.42 µM)
MIC50 (S. aureus (ATCC 25913)): 1.1 µg/mL (≈ 1.71 µM)
MIC50 [10]: 1.1 µg/mL (≈ 1.71 µM)

Oc1cc(O)c2c(c1)C/C=C\Cc1cc(c(Cl)cc1O)Oc1c(O)cc(cc1O)C/C(Cl)=C\Cc1cc(c(Cl)cc1O)O2 [VU0849855, 9-dechlorochrysophaentin A]
MIC50 (B. Subtilis [7]): 4 µg/mL (≈ 6.21 µM)
inhibition of FDAA incorporation ([1]; 10 μM (5×MIC)): inhibited incorporation of FDAAs
localization of fluorescently labeled FtsZ (mNeonG) [2]: complete disassociation of FtsZ
localization of FtsZ [2]: lead to dislocation of FtsZ
MIC50 [8]: 2.5 µg/mL (≈ 3.88 µM)
cell lengthening ([3]; up to 20 μM (10×MIC)): did not affect cell lengthening
MIC50 [9]: 5 µg/mL (≈ 7.77 µM)
MIC50 (S. aureus (ATCC 25913)): 2.5 µg/mL (≈ 3.88 µM)
MIC50 [10]: 2.5 µg/mL (≈ 3.88 µM)

chrysophaentin A [reference compound]
localization of FtsZ [2]: leads to dispersion of FtsZ; also recorded: replicated the FtsZ dispersion phenotype
localization of FtsZ, FtsA and PBP2B [2]: led to dispersion of the septal peptidoglycan synthesis machinery
MIC50 [11]: 1 to 4 µM
MIC50 E. Faecalis [8]: 2 µg/mL
MIC50 VRE [9]: 2 µg/mL
MIC50 S. Aureus (S. aureus (ATCC 25913)): 2 µg/mL
MIC50 MRSA [10]: 2 µg/mL

Source: US12398115B2, “Chrysophaentin analogs and use thereof” (Vanderbilt University, priority 2019, dated 2025)
